Results published in patent US20250034130A1, “Crystal Form of Tolebrutinib, Preparation Method Therefor and Use Thereof” (Principia Biopharma Inc., priority 2021, published 2025).
Entries after “also recorded” stand apart in the source; their conditions may differ.

Columns and labels:
Type in all cases: physicochemical
[1] = Hygroscopicity by DVS (0% RH-95% RH-0% RH at 25° C.); conditions: for Weight gain relative to that of the prior art / Weight gain at 80% RH: 80% RH; for Weight gain at 80% RH: DVS; for Weight gain at 80% RH / Hygroscopicity class: 25° C.; for Crystalline state after the DVS test: XRPD before and after DVS; for Hygroscopicity class: weight gain at 80% RH
Experimental: DVS was measured via an SMS (Surface Measurement Systems Ltd.) intrinsic DVS instrument.
Parameters for DVS method are as follows: • Temperature: 25° C. • Gas and flow rate: nitrogen, 200 mL/min • RH range: 0% RH to 95% RH • ^1H NMR were collected from a Bruker Avance II DMX 400M HZ NMR spectrometer. 1-5 mg of sample was weighed and dissolved in 0.5 mL of deuterated dimethyl sulfoxide to obtain a solution with a concentration of 2-10 mg/mL.
Certain amounts of Form CSII of the present disclosure and the prior art amorphous form were sampled for hygroscopicity tests using DVS instrument. The weight change at each relative humidity was recorded during the cycle of 0% RH-95% RH-0% RH at 25° C.
Description and definition of hygroscopicity (general notice 9103 drug hygroscopicity test guidelines in 2020 edition of Chinese Pharmacopoeia, experimental condition: 25±1° C., 80±2% RH):
Certain amounts of Form CSIII of the present disclosure and the prior art amorphous form were sampled for hygroscopicity tests using DVS instrument. The weight change at each relative humidity was recorded during the cycle of 0% RH-95% RH-0% RH at 25° C.
Certain amounts of Form CSIV of the present disclosure and the prior art amorphous form were sampled for hygroscopicity tests using DVS instrument. The weight change at each relative humidity was recorded during the cycle of 0% RH-95% RH-0% RH at 25° C.

[2] = Grinding stability (manual grinding 5 minutes in a mortar, XRPD); conditions: ground manually 5 minutes in a mortar
Experimental: Form CSII was grounded manually for 5 minutes in a mortar. XRPD was tested before and after the grinding.
Form CSIII was grounded manually for 5 minutes in a mortar. XRPD was tested before and after the grinding.
Form CSIV was grounded manually for 5 minutes in a mortar. XRPD was tested before and after the grinding.

[3] = Stability at high temperature (80° C., 2 days, purity by UPLC); conditions: for Chemical purity (in words) / Purity change: 2 days; for Purity change: glass vial with cap
Experimental: (§1) The related substance in the present disclosure was detected by UPLC and the parameters are shown below.
Certain amounts of Form CSII of the present disclosure and the prior art amorphous form were weighted and stored at 80° C. for 2 days, and the purities of the solids before and after storage were determined by UPLC, the results are as shown in Table 4.
Certain amounts of Form CSIII of the present disclosure and the prior art amorphous form were weighted and stored at 80° C. for 2 days, and the purities of the solids before and after storage were determined by UPLC, the results are as shown in Table 11.
Certain amounts of Form CSIV of the present disclosure and the prior art amorphous form were stored at 80° C. for 2 days, and the purities of the solids before and after storage were determined by UPLC, the results are as shown in Table 17.

[4] = Stability of crystalline form in tablet formulation process (XRPD before and after); conditions: tablets per Table 7 and Table 8, XRPD
Experimental: According to the formulation and process in Table 7 and Table 8, the tablets were prepared with an appropriate amount of Form CSII of the present disclosure. XRPD was tested before and after formulation.
According to the formulation and process in Table 7 and Table 8, the tablets were prepared with an appropriate amount of Form CSIII of the present disclosure. XRPD was tested before and after formulation.
According to the formulation and process in Table 7 and Table 8, the tablets were prepared with an appropriate amount of Form CSIV of the present disclosure. XRPD was tested before and after formulation.

[5] = Physical and chemical stability on storage in opened packages (purity by UPLC, solid form by XRPD)
Experimental: X-ray powder diffraction patterns in the present disclosure were acquired by a Bruker X-ray powder diffractometer. The parameters of the X-ray powder diffraction method of the present disclosure are as follows: • X-Ray: Cu, Kα • Kα1 (Å): 1.54060; Kα2 (Å): 1.54439 • Kα2/Kα1 intensity ratio: 0.50
as §1
Said “room temperature” is not a specific temperature, but a temperature range of 10-30° C. Said “open packaged” is putting the sample into a glass vial, covering the vial with aluminum foil, and punching 5-10 holes on the foil.
(§2) Form CSII of the present disclosure and the prior art amorphous form were weighed and stored under 25° C./60% RH, 40° C./75% RH and 60° C./75% RH conditions, in opened packages, respectively. The purity and solid form were determined by UPLC and XRPD. The results are listed in Table 3, and the overlaid XRPD patterns of Form CSII before and after storage for stability evaluation are shown in FIG. 4.
as §2, with “CSIII” for “CSII”, “10,” for “3,”, “9.” for “4.”
as §2, with “CSIV” for “CSII”, “C./60%” for “C./60% RH, 40° C./75%”, “40°” for “60°”, “16,” for “3,”, “15.” for “4.”

[6] = Light stability (Chinese Pharmacopoeia method, purity by UPLC); conditions: light not less than 1.2×10^6 lux-hr, near-UV not less than 200 W-hr/m^2; for Purity change: 1 week; for Chemical purity (in words): about 1 week
Text: as §1
(§3) Certain amounts of Form CSII of the present disclosure and the prior art amorphous form were weighted and stored for about 1 week, in accordance with the method of the Chinese Pharmacopoeia, under the condition that the total illumination of the light source was not less than 1.2×106 lux-hr and the energy of the near-ultraviolet lamp was not less than 200 W-hr/m^2, the purities of the solids before and after storage were measured by UPLC and the results are shown in Table 5.
as §3, with “CSIII” for “CSII”, “1.2×10^6” for “1.2×106”, “12.” for “5.”
as §3, with “CSIV” for “CSII”, “1.2×10^6” for “1.2×106”, “18.” for “5.”

[7] = 25° C./60% RH, 6 months, open package
[8] = 40° C./75% RH, 6 months, open package
[9] = 60° C./75% RH, 1 month, open package
[10] = 25° C./60% RH, 2 months, open package
[11] = 40° C./75% RH, 2 months, open package

Weight gain relative to that of the prior art [1] | Weight gain at 80% RH [1] | Crystalline state after the DVS test [1] | Hygroscopicity class [1] | Crystalline state after grinding [2] | Chemical purity (in words) [3] | Purity change [3] | Chemical purity during storage ([5]; 25° C./60% RH) | Time for which the crystalline state doesn't change / form is stable ([5]; 25° C./60% RH) | Time for which the crystalline state doesn't change / form is stable ([5]; 40° C./75% RH) | Purity ([5]; Initial) | Solid form ([5]; Initial) | Purity change [6] | Chemical purity (in words) [6] | Structure (SMILES) | Crystalline state after formulation process (mixed with excipients, tableted) [4] | other results
⅙ | 0.66% | remained unchanged | slightly hygroscopic | remains unchanged | basically remained unchanged | +0.04% | above 99.9% | at least 6 months | at least 6 months | 99.91% | Form CSIII | +0.02% | basically remained unchanged | C=CC(=O)N1CCC[C@@H](n2c(=O)n(-c3ccc(Oc4ccccc4)cc3)c3c(N)nccc32)C1 [Form CSIII, (R)-1-(1-acryloylpiperidin-3-yl)-4-amino-3-(4-phenoxyphenyl)-1H-imidazo[4,5-c] pyridin-2(3H)-one] | remained unchanged; also recorded: did not change | Time for which chemical purity remains substantially unchanged [3]: at least 2 days; Purity [5, 7]: 99.93%; Purity change [5, 7]: +0.02%; Solid form [5, 7]: Form CSIII; The number of the purities exceeding the qualification thresholds [5, 7]: 0; Chemical purity during storing ([5]; 40° C./75% RH and 60° C./75% RH): above 99.8%; Purity [5, 8]: 99.91%; Purity change [5, 8]: 0%; Solid form [5, 8]: Form CSIII; The number of the purities exceeding the qualification thresholds [5, 8]: 0; Time for which the crystalline state doesn't change ([5]; 60° C./75% RH): at least 1 month; Solid form and purity after storage ([5]; 60° C./75% RH, 1 month): remained basically unchanged; Purity [5, 9]: 99.86%; Purity change [5, 9]: −0.05%; Solid form [5, 9]: Form CSIII; The number of the purities exceeding the qualification thresholds [5, 9]: 0; The number of the purities exceeding the qualification thresholds ([5]; Initial, ICH Q3A (R2) thresholds): 0; Impurity content versus qualification threshold ([5]; throughout the stability investigation processes): did not exceed the qualification thresholds; also recorded: did not exceed the qualificated threshold; Time for which there is no change in the purity [6]: at least 1 week
1/15 | 0.24% | remained unchanged | slightly hygroscopic | remains unchanged | basically remained unchanged | +0.03% | above 99.7% | at least 2 months | at least 2 months | 99.74% | Form CSIV | +0.06% | basically remained unchanged | C=CC(=O)N1CCC[C@@H](n2c(=O)n(-c3ccc(Oc4ccccc4)cc3)c3c(N)nccc32)C1 [Form CSIV, (R)-1-(1-acryloylpiperidin-3-yl)-4-amino-3-(4-phenoxyphenyl)-1H-imidazo[4,5-c] pyridin-2(3H)-one] | remained unchanged; also recorded: did not change | Purity [5, 10]: 99.74%; Purity change [5, 10]: 0.00%; Solid form [5, 10]: Form CSIV; Purity [5, 11]: 99.75%; Purity change [5, 11]: +0.01%; Solid form [5, 11]: Form CSIV
